Source: patent US20210038732A1, “ANTICANCER MICRORNA AND LIPID FORMULATIONS THEREOF” (INTERNA TECHNOLOGIES B.V., priority 2018, published 2021)

Experiments:
[1] = system: HEP3B, SNU449, A2058; experiment: Cell cycle distribution by imaging of nuclei (Example 4.9); type: cell-based; conditions: 1 nM, 3 nM and 10 nM, concentration-dependent; vs mock
Method: Depending on cancer cell type 3000-6000 cells were seeded in a 96 well plate. After cells attached, they were transfected with different concentrations of miRNA-193a and cell cycle profile was measured at different time points. At selected time points media was aspirated from wells and DNA staining solution (Hoescht 33342/Saponin/PFA) was added to each well and incubated for 2 hours at 37° C. Then, cell images were taken using Thermo Celllnsite in which nuclei were specified and nuclei intensity were measured. Nuclei intensity was analyzed using program R to determine the different phases of the cell cycle (G0/G1, S, G2/M) based on the DNA content.
Similar phenotype has been observed in Panc1 (pancreatic cancer cell) as well as H1975 (lung cancer cell) (data not shown). […] MPP2 and STMN1 associate with cytoskeleton and therefore regulate cell division and proliferation at the G2/M phase, while YWHAZ and CCNA2 play roles in regulation of G2/M phase checkpoint by binding and sequestering the cyclin-dependent kinases.

[2] = system: HeP3B, SNU449; experiment: Cell motility, Boyden chamber assay; type: cell-based, human; conditions: 10 nM
Method: (§1) To check the migratory ability of cells, a Boyden Chamber assay was performed, which is based on a chamber of two medium-filled compartments separated by a […] pore size membrane (BD falcon). In this assay, depending on cell type 60,000-120,000 cells were seeded in the upper compartment of the membrane in serum free medium and were allowed to migrate through the pores of the membrane into the lower compartment, in which serum is present in the media. The serum acts as a chemoattractant. After an appropriate incubation time, the membrane between two compartments was fixed, stained and 6 different images from each membrane were taken. The number of migratory cells were counted using Image J analysis.
(§2) Different biological effects of miRNA-193a-3p have been tested in various cancer cell lines (see Table 13). For this, various cells were treated with miRNA-193a at different concentrations (1, 3, 10 nM). For all experiments controls (untreated, mock and scrambled) were measured. All assays were performed at 24h, 48h and 72h time points. Data shown in Table 13 are the results for miRNA-193a at 10 nM concentration at indicated time points. All the results have been quantified and normalized to the mock control.
(§3) miRNA-193a treatment in various cancer cell lines decreased cell viability over time as measured by either an MTS assay or by cell count. It enhanced apoptosis induction over time as measured by a caspase 3/7 apoptosis assay. […] It is of note that due to intrinsic characteristics and gene mutation status of each cell line, performing one method to detect apoptosis is not always ideal for all cell lines.

[3] = system: A549; experiment: Cell motility, Boyden chamber assay; type: cell-based, human; conditions: 10 nM; A549 (first of two symbols in the cell)
Method: as §1, §2, §3

[4] = system: A2058; experiment: Cell motility, Boyden chamber assay; type: cell-based, human; conditions: 10 nM
Method: as §1, §2, §3

[5] = system: subq human A2058 melanoma tumors; experiment: Tumor growth inhibition in mice bearing subq A2058 tumors (Example 4.2); type: in vivo
Method: To determine TGI effects, the T/C (tumor/control) ratio was determined by calculating the relative percentage increase in TV (tumor volume) for the individual mice of each group (TV of the day of randomization as reference point), and then dividing the group median relative increase in TV for the treated groups by that for the PBS group. Outliers (with respect to individual TVs) within each treatment group were determined by using the formulas Q1−1.5×IQR (lower limit) and Q3+1.5×IQR (upper limit).
Statistical analysis was performed using Graphpad Prism 7. A two-tailed, non-parametric Mann-Whitney test was used to calculate differences in relative tumor volumes (TV on day ‘X’ divided by TV on the day of randomization). In all statistical tests, the effect of the test items was compared to the PBS group. A p-value <0.05 was considered statistically significant.
Four to six weeks old female athymic nude mice (Crl:NU(NCr)-Foxn1nu; Charles River) were unilaterally and subcutaneously injected in the flank with 1×10^7 A2058 cells in 50% matrigel (0.2 mL/mouse). At the time of randomization, the TVs (tumor volumes) ranged between 139.4 and 245.5 mm3 (median 161.3, IQR=149.9-175.1). Body weights and TVs (caliper measurements) were determined three times/week. […]

Substance: miRNA-193a: duplex of the miRNA-193a-3p of SEQ ID NO: 218 (mimic, sense) with antisense strand SEQ ID NO: 219; naked in vitro, formulated in vivo (sense UGGGACUUUGUAGGCCAGUUTT; antisense AACUGGCCUACAAAGUCCCAGU; chemistry not given here; listed as Homo sapiens)
- G2/M arrest [1]: enhances the G2/M arrest
- Motility (18 to 24 h) [2]: ↓
- Motility (18 to 24 h) [3]: ↓
- Motility (18 to 24 h) [4]: ↓
- T/C (relative tumor volume) ([5]; 3 mg/kg iv QDx5 then BIW, Table 1 entry 1 nanoparticles, 12 days after start of treatment): 0.44
- TGI effects ([5]; formulated in nanoparticles according to the invention, 3 mg/kg iv): significant TGI effects
